Results from the kinase profiling compilation of Christmann-Franck et al. (2016).

Columns and labels:
Experiment in all cases: radiometric filter-binding kinase assay, Kinase HotSpot
Conditions in all cases: compound 0.5 µM; ATP 10 µM
WNK3 (human) = WNK3 (human) (UniProt Q9BYP7)
HIPK3 (human) = HIPK3 (human) (UniProt Q9H422)
CDK1 CCNB1 (human) = CDK1 CCNB1 (human) (UniProt P06493+P14635)
GRK6 (human) = GRK6 (human) (UniProt P43250)
CDK7 CCNH MNAT1 (human) = CDK7 CCNH MNAT1 (human) (UniProt P50613+P51948+P51946)
PRKCA (human) = PRKCA (human) (UniProt P17252)
PRKCI (human) = PRKCI (human) (UniProt P41743)
LIMK1 (human) = LIMK1 (human) (UniProt P53667)
MINK1 (human) = MINK1 (human) (UniProt Q8N4C8)
CSNK1G1 (human) = CSNK1G1 (human) (UniProt Q9HCP0)
CSNK1G1 (human), sequence (Q9HCP0 whole entry, looked up): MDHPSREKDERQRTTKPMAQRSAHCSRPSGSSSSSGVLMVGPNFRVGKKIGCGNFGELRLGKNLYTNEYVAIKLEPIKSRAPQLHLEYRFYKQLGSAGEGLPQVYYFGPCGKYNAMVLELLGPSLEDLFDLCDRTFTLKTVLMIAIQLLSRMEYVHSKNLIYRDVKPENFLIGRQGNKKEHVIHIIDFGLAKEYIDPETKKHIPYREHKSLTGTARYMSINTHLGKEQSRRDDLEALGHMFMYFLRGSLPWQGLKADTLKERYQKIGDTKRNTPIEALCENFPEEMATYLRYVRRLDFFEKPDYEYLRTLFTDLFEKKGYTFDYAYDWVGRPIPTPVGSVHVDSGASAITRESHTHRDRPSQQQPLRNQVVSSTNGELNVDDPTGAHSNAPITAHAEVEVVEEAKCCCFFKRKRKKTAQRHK

CAMK2B (human) = CAMK2B (human) (UniProt Q13554)
GRK5 (human) = GRK5 (human) (UniProt P34947)
SRMS (human) = SRMS (human) (UniProt Q9H3Y6)
SRMS (human), sequence (Q9H3Y6 whole entry, looked up): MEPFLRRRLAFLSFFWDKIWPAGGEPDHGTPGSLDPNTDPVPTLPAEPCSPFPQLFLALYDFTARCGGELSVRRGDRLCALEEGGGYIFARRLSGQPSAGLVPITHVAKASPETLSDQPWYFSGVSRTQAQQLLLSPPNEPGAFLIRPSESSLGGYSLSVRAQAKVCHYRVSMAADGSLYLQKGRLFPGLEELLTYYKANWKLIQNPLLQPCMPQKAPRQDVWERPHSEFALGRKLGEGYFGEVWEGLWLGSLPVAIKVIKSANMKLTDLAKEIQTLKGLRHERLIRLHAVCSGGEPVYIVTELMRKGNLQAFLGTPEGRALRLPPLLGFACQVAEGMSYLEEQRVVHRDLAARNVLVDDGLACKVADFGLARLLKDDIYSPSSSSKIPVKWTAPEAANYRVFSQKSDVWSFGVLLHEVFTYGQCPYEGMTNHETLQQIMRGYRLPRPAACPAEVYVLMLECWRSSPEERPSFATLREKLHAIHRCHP

PRKCZ (human) = PRKCZ (human) (UniProt Q05513)
NTRK1 (human) = NTRK1 (human) (UniProt P04629)
TGFBR1 (human) = TGFBR1 (human) (UniProt P36897)
PDGFRA (human) = PDGFRA (human) (UniProt P16234)
PDGFRB (human) = PDGFRB (human) (UniProt P09619)
PDGFRB (human), sequence (P09619 whole entry, looked up): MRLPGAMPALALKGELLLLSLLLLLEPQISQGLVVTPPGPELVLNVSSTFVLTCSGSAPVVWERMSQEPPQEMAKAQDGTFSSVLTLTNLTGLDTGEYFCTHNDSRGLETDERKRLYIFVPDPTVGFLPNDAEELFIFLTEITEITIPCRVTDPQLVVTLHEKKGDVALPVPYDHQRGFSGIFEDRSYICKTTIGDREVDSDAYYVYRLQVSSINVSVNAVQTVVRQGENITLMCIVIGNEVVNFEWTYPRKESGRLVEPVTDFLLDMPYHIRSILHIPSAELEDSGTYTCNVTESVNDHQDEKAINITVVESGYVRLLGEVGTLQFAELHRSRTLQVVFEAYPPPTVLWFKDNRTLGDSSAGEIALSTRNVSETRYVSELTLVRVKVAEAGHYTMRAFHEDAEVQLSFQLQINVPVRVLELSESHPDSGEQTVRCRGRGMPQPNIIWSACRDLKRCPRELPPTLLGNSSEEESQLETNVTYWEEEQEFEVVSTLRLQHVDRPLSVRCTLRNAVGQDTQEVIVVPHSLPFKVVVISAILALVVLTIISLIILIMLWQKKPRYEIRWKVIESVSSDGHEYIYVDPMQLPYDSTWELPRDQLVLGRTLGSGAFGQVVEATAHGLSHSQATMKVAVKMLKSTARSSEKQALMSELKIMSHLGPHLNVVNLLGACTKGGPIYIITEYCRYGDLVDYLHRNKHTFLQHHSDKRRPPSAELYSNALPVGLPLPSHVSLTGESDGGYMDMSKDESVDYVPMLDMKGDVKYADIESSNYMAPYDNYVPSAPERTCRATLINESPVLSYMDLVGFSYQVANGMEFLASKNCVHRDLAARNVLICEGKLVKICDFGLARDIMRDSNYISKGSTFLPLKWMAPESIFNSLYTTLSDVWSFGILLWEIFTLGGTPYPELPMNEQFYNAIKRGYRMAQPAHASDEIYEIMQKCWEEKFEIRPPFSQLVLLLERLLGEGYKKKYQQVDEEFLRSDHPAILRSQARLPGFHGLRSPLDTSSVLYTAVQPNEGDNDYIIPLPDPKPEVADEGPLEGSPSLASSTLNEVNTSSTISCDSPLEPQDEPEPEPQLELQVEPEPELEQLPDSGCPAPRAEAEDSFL

ADRBK1 (human) = ADRBK1 (human) (UniProt P25098)
ALK (human) = ALK (human) (UniProt Q9UM73)
MAP4K4 (human) = MAP4K4 (human) (UniProt O95819)
MAP4K4 (human), sequence (O95819 whole entry, looked up): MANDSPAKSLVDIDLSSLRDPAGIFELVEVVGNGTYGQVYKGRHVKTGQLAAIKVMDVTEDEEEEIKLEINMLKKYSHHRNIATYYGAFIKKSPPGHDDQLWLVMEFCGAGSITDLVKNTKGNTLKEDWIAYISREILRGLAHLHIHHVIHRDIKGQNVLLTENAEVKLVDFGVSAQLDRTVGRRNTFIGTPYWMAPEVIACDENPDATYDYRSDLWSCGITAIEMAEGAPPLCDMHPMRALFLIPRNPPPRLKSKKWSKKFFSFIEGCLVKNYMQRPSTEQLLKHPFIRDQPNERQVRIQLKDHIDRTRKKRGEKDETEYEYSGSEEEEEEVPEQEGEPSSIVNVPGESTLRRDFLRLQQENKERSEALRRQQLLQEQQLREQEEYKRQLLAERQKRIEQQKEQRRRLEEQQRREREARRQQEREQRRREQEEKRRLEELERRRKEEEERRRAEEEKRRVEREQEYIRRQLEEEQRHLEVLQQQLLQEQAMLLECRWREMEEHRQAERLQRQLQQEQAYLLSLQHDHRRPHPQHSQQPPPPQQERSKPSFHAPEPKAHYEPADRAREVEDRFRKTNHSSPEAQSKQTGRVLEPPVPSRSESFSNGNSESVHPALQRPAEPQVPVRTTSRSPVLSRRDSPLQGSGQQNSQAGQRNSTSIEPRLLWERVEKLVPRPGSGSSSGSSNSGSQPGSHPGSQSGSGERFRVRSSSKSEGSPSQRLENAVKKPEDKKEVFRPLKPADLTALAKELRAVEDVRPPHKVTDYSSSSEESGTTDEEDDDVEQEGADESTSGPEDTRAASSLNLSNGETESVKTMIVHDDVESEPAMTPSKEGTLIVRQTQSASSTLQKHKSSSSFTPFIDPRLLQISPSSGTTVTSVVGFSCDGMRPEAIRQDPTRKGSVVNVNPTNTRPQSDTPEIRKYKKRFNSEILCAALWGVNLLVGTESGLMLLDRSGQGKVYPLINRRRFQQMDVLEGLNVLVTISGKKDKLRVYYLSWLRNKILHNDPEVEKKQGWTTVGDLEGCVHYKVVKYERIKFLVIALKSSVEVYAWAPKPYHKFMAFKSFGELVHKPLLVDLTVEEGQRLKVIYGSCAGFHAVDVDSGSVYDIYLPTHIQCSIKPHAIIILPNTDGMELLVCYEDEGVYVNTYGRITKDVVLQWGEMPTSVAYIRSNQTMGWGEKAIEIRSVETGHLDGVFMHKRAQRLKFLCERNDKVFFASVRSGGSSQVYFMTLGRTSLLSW

SRPK1 (human) = SRPK1 (human) (UniProt Q96SB4)
PRKD1 (human) = PRKD1 (human) (UniProt Q15139)
PRKD1 (human), sequence (Q15139 whole entry, looked up): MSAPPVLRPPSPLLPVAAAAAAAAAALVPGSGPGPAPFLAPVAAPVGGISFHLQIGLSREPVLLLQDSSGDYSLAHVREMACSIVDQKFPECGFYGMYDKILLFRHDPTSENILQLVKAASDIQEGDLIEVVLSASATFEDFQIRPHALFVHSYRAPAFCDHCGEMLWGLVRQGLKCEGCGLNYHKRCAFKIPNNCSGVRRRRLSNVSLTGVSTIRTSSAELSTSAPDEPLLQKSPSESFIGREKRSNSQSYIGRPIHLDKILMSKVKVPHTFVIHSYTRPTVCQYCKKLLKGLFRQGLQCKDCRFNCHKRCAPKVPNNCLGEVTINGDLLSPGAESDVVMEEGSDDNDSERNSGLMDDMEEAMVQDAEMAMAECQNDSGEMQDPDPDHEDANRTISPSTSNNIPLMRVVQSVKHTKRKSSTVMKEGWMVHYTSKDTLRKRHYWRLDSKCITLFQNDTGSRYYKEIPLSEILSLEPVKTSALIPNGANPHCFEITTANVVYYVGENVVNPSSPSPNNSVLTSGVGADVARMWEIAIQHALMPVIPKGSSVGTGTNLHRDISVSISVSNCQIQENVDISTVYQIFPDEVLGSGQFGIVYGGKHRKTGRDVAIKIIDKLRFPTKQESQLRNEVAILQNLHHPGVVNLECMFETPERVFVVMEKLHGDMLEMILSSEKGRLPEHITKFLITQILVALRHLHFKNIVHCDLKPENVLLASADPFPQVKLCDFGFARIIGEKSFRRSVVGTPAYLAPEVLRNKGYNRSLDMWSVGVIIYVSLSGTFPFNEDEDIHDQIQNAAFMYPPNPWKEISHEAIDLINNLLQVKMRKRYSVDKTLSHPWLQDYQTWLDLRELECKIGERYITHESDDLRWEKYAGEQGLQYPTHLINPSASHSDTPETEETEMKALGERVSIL

EGFR (human) = EGFR (human) (UniProt P00533)
MELK (human) = MELK (human) (UniProt Q14680)
CHUK (human) = CHUK (human) (UniProt O15111)
PRKCG (human) = PRKCG (human) (UniProt P05129)
CDK3 CCNE1 (human) = CDK3 CCNE1 (human) (UniProt Q00526+P24864)
DYRK1A (human) = DYRK1A (human) (UniProt Q13627)
NEK4 (human) = NEK4 (human) (UniProt P51957)
STK25 (human) = STK25 (human) (UniProt O00506)
CAMK1 (human) = CAMK1 (human) (UniProt Q14012)
PRKD3 (human) = PRKD3 (human) (UniProt O94806)
LCK (human) = LCK (human) (UniProt P06239)
CAMK1D (human) = CAMK1D (human) (UniProt Q8IU85)
CAMK1D (human), sequence (Q8IU85 whole entry, looked up): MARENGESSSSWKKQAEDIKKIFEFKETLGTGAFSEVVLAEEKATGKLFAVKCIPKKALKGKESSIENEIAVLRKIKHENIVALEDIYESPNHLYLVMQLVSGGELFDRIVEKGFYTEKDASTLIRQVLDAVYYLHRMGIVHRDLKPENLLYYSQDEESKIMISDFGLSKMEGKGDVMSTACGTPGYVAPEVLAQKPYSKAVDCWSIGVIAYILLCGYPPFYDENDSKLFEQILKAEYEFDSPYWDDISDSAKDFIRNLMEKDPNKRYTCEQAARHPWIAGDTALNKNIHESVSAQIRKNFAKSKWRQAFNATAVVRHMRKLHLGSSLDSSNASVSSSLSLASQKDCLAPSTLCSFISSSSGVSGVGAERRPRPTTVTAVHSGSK

CDK2 CCNE1 (human) = CDK2 CCNE1 (human) (UniProt P24941+P24864)
AKT3 (human) = AKT3 (human) (UniProt Q9Y243)
NEK2 (human) = NEK2 (human) (UniProt P51955)
ACVR1 (human) = ACVR1 (human) (UniProt Q04771)
ACVR1 (human), sequence (Q04771 whole entry, looked up): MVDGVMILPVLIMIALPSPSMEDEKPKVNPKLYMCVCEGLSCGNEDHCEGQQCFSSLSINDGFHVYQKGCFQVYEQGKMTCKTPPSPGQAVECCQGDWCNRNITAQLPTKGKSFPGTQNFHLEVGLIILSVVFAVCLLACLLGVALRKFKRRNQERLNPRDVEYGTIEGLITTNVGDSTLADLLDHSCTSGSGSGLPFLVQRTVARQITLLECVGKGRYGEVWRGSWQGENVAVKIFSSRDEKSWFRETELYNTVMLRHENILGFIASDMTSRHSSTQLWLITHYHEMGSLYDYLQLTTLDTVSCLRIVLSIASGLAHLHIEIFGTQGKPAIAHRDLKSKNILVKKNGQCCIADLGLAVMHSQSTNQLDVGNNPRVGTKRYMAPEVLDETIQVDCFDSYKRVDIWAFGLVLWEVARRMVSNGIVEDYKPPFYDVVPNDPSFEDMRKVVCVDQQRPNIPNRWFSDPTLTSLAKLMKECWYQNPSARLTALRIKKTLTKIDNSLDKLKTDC

MKNK2 (human) = MKNK2 (human) (UniProt Q9HBH9)
CAMKK1 (human) = CAMKK1 (human) (UniProt Q8N5S9)
EPHA7 (human) = EPHA7 (human) (UniProt Q15375)

`Nc1ccc2ncnc(NCCc3ccc(Oc4ccccc4)cc3)c2c1` was tested, and the residual activity (WNK3 (human)) was 114%, the residual activity (HIPK3 (human)) was 98.6% and the residual activity (CDK1 CCNB1 (human)) was 96.3%. It also gave a residual activity (GRK6 (human)) of 99.3%, a residual activity (CDK7 CCNH MNAT1 (human)) of 99.3% and a residual activity (PRKCA (human)) of 103%. For the same compound, the residual activity (PRKCI (human)) was 103%, the residual activity (LIMK1 (human)) was 101% and the residual activity (MINK1 (human)) was 95.4%. For the same compound, the residual activity (CSNK1G1 (human)) was 97.6%, the residual activity (CAMK2B (human)) was 95.1% and the residual activity (GRK5 (human)) was 98%. The residual activity (SRMS (human)) was 99.2%, the residual activity (PRKCZ (human)) was 96% and the residual activity (NTRK1 (human)) was 108%. It also gave a residual activity (TGFBR1 (human)) of 97.7%, a residual activity (PDGFRA (human)) of 98.5% and a residual activity (PDGFRB (human)) of 105%. It also gave a residual activity (ADRBK1 (human)) of 91.5%, a residual activity (ALK (human)) of 108% and a residual activity (MAP4K4 (human)) of 99.2%. For the same compound, the residual activity (SRPK1 (human)) was 99.8%, the residual activity (PRKD1 (human)) was 99.3% and the residual activity (EGFR (human)) was 112%. For the same compound, the residual activity (MELK (human)) was 96.8%, the residual activity (CHUK (human)) was 101% and the residual activity (PRKCG (human)) was 95.2%. The residual activity (CDK3 CCNE1 (human)) was 94.8%, the residual activity (DYRK1A (human)) was 101% and the residual activity (NEK4 (human)) was 97.8%. It also gave a residual activity (STK25 (human)) of 116%, a residual activity (CAMK1 (human)) of 107% and a residual activity (PRKD3 (human)) of 98.1%. For the same compound, the residual activity (LCK (human)) was 98.3%, the residual activity (CAMK1D (human)) was 102% and the residual activity (CDK2 CCNE1 (human)) was 95%. For the same compound, the residual activity (AKT3 (human)) was 104%, the residual activity (NEK2 (human)) was 90% and the residual activity (ACVR1 (human)) was 91.8%. The residual activity (MKNK2 (human)) was 104%, the residual activity (CAMKK1 (human)) was 119% and the residual activity (EPHA7 (human)) was 104%.

In the case of `O=c1cc(N2CCOCC2)oc2c1ccc1ccccc12`, the residual activity (WNK3 (human)) is reported as 97.5%, the residual activity (HIPK3 (human)) is reported as 107% and the residual activity (CDK1 CCNB1 (human)) is reported as 85.5%. It also gave a residual activity (GRK6 (human)) of 93.8%, a residual activity (CDK7 CCNH MNAT1 (human)) of 98.2% and a residual activity (PRKCA (human)) of 89.2%. For the same compound, the residual activity (PRKCI (human)) was 95.5%, the residual activity (LIMK1 (human)) was 98% and the residual activity (MINK1 (human)) was 96%. The residual activity (CSNK1G1 (human)) was 101%, the residual activity (CAMK2B (human)) was 98.1% and the residual activity (GRK5 (human)) was 106%. For the same compound, the residual activity (SRMS (human)) was 97.1%, the residual activity (PRKCZ (human)) was 106% and the residual activity (NTRK1 (human)) was 96.4%. The residual activity (TGFBR1 (human)) was 98.5%, the residual activity (PDGFRA (human)) was 83.9% and the residual activity (PDGFRB (human)) was 111%. For the same compound, the residual activity (ADRBK1 (human)) was 98.9%, the residual activity (ALK (human)) was 104% and the residual activity (MAP4K4 (human)) was 89.3%. The residual activity (SRPK1 (human)) was 90.9%, the residual activity (PRKD1 (human)) was 102% and the residual activity (EGFR (human)) was 96.2%. It also gave a residual activity (MELK (human)) of 103%, a residual activity (CHUK (human)) of 93.4% and a residual activity (PRKCG (human)) of 101%. For the same compound, the residual activity (CDK3 CCNE1 (human)) was 102%, the residual activity (DYRK1A (human)) was 79% and the residual activity (NEK4 (human)) was 97.4%. The residual activity (STK25 (human)) was 94.8%, the residual activity (CAMK1 (human)) was 111% and the residual activity (PRKD3 (human)) was 98.8%. The residual activity (LCK (human)) was 99.2%, the residual activity (CAMK1D (human)) was 91.1% and the residual activity (CDK2 CCNE1 (human)) was 119%. The residual activity (AKT3 (human)) was 98.3%, the residual activity (NEK2 (human)) was 94.8% and the residual activity (ACVR1 (human)) was 107%. For the same compound, the residual activity (MKNK2 (human)) was 88.5%, the residual activity (CAMKK1 (human)) was 112% and the residual activity (EPHA7 (human)) was 98.6%.

`CO[C@H]1CC2CC[C@@H](C)[C@@](O)(O2)C(=O)C(=O)N2CCCC[C@H]2C(=O)OC([C@H](C)C[C@@H]2CC[C@@H](O)[C@H](OC)C2)CC(=O)[C@H](C)/C=C(\C)[C@@H](O)[C@@H](OC)C(=O)[C@H](C)C[C@H](C)/C=C/C=C/C=C/1C` (stereo partly specified) showed a residual activity (WNK3 (human)) of 102%, a residual activity (HIPK3 (human)) of 107% and a residual activity (CDK1 CCNB1 (human)) of 103%. For the same compound, the residual activity (GRK6 (human)) was 103%, the residual activity (CDK7 CCNH MNAT1 (human)) was 98.2% and the residual activity (PRKCA (human)) was 108%. It also gave a residual activity (PRKCI (human)) of 99.1%, a residual activity (LIMK1 (human)) of 89.8% and a residual activity (MINK1 (human)) of 100%. The residual activity (CSNK1G1 (human)) was 96%, the residual activity (CAMK2B (human)) was 99.2% and the residual activity (GRK5 (human)) was 98.7%. The residual activity (SRMS (human)) was 108%, the residual activity (PRKCZ (human)) was 105% and the residual activity (NTRK1 (human)) was 98.4%. The residual activity (TGFBR1 (human)) was 99.5%, the residual activity (PDGFRA (human)) was 95.1% and the residual activity (PDGFRB (human)) was 108%. For the same compound, the residual activity (ADRBK1 (human)) was 102%, the residual activity (ALK (human)) was 115% and the residual activity (MAP4K4 (human)) was 87.7%. For the same compound, the residual activity (SRPK1 (human)) was 108%, the residual activity (PRKD1 (human)) was 98.2% and the residual activity (EGFR (human)) was 93.3%. It also gave a residual activity (MELK (human)) of 97.8%, a residual activity (CHUK (human)) of 110% and a residual activity (PRKCG (human)) of 106%. For the same compound, the residual activity (CDK3 CCNE1 (human)) was 102%, the residual activity (DYRK1A (human)) was 94.3% and the residual activity (NEK4 (human)) was 97.2%. For the same compound, the residual activity (STK25 (human)) was 129%, the residual activity (CAMK1 (human)) was 111% and the residual activity (PRKD3 (human)) was 95.6%. It also gave a residual activity (LCK (human)) of 99.4%, a residual activity (CAMK1D (human)) of 105% and a residual activity (CDK2 CCNE1 (human)) of 91.3%. The residual activity (AKT3 (human)) was 97.8%, the residual activity (NEK2 (human)) was 107% and the residual activity (ACVR1 (human)) was 94.6%. It also gave a residual activity (MKNK2 (human)) of 88.1%, a residual activity (CAMKK1 (human)) of 118% and a residual activity (EPHA7 (human)) of 89.7%.
